Results: ChEMBL document CHEMBL4152187, “Plant-derived mPGES-1 inhibitors or suppressors: A new emerging trend in the search for small molecules to combat inflammation” (Eur J Med Chem, 2018)

How the values were obtained:
Prostaglandin E synthase [1] = target: T1, Prostaglandin E synthase (Homo sapiens, UniProt O14684); experiment: Inhibition of mPGES1 in human A549 cell microsomal membrane using pGH2 as substrate pretreated for 15 mins followed by substrate addition and measured after 1 min by RP-HPLC method
T1 sequence (O14684 whole entry): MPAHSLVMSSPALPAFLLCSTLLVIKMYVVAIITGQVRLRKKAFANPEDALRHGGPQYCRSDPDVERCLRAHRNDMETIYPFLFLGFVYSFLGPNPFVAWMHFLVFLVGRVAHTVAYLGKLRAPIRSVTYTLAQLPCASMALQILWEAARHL

J774 [2] = experiment: Inhibition of LPS-induced mPGES1 mRNA expression in mouse J774 cells at 100 uM measured after 6 to 24 hrs by qRT-PCR analysis; type: functional
Rattus norvegicus [3] = experiment: Antiinflammatory activity against carrageenan-induced pleurisy in rat assessed as reduction in PGE2 level at 3.6 mg/kg, ip relative to control; type: functional; parameters: scale not given: the % may be the effect or the level left
Rattus norvegicus [4] = experiment: Antiinflammatory activity against carrageenan-induced pleurisy in rat assessed as reduction in exudate formation at 3.6 mg/kg, ip relative to control; type: functional; parameters: scale not given: the % may be the effect or the level left
Rattus norvegicus [5] = experiment: Antiinflammatory activity against carrageenan-induced pleurisy in rat assessed as reduction in cell infiltration at 3.6 mg/kg, ip relative to control; type: functional; parameters: scale not given: the % may be the effect or the level left
J774 [6] = experiment: Inhibition of LPS-stimulated mPGES1 expression in mouse J774 cells; type: functional, cell-based
[7] = target: T2, Prostaglandin E synthase (Homo sapiens) (UniProt O14684); experiment: Inhibition of mPGES1 in human HeLa cells assessed as reduction in PGE2 production at 50 uM by enzyme immunoassay relative to control; type: cell-based
T2 sequence (whole entry): T1 sequence (O14684 whole entry)

[8] = target: Prostaglandin G/H synthase 2 (Homo sapiens) (UniProt P35354); experiment: Inhibition of COX2 in human A375 cells assessed as reduction in PGE2 production up to 20 uM by immunoblot analysis relative to control
Sequence of Prostaglandin G/H synthase 2 (Homo sapiens) (P35354 whole entry, looked up): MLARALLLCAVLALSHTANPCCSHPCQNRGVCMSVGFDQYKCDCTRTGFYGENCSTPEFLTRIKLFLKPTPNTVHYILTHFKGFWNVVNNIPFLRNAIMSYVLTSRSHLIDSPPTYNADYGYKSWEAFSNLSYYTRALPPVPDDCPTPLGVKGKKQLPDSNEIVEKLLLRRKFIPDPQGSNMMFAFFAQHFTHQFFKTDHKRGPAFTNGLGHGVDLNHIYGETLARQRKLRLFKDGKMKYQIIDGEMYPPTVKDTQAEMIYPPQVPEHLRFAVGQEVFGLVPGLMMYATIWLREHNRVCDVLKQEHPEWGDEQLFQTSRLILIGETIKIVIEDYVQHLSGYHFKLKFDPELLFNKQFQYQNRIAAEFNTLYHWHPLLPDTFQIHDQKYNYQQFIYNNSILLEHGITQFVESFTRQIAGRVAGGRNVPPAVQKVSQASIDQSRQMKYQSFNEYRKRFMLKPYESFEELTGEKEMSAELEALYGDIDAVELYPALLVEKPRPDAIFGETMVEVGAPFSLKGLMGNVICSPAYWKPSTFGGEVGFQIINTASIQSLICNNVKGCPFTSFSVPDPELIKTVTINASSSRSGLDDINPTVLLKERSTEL

[9] = target: Prostaglandin G/H synthase 2 (Homo sapiens) (UniProt P35354); experiment: Inhibition of COX2 in human Hs294 cells assessed as reduction in PGE2 production up to 20 uM by immunoblot analysis relative to control
Prostaglandin E synthase [10] = target: T1, Prostaglandin E synthase; experiment: Inhibition of mPGES1 in human A549 cell microsomes

For CCCCCc1cc(OC(=O)c2c(O)cc(OC)cc2CCCCC)cc(O)c1C(=O)O, the IC50 (Prostaglandin E synthase [1]) was 430 nM.

Work on O=c1c(O)c(-c2ccc(O)cc2)oc2cc(O)cc(O)c12 [KAEMPFEROL] yielded an inhibition at 100 µM (J774 [2]) greater than 50%.

COc1cc(-c2oc3cc(O)cc(O)c3c(=O)c2O)ccc1O [ISORHAMNETIN] gave an inhibition at 100 µM (J774 [2]) greater than 50%.

C=C(C)[C@H](CC=C(C)C)C[C@]12C[C@H](CC=C(C)C)C(C)(C)[C@](CC=C(C)C)(C(=O)C(C(=O)c3ccc(O)c(O)c3)=C1O)C2=O gave an IC50 (Prostaglandin E synthase [1]) of 300 nM.

With COC(=O)c1c(C)cc(OC(=O)c2c(C)cc(O)c(C=O)c2O)c(C)c1O [ATRANORIN] the IC50 (Prostaglandin E synthase [1]) was 1150 nM.

Compound CCc1oc(=O)c(Cc2c(O)c(CC=C(C)C)c(O)c(C(C)=O)c2O)c(O)c1C [ARZANOL] has an Activity (Rattus norvegicus [3]) of 47%, an Activity (Rattus norvegicus [4]) of 59% and an Activity (Rattus norvegicus [5]) of 48%.

For CC(=O)O[C@@H]1CC[C@@]2(C)[C@@H](CC[C@]3(C)[C@@H]2CC=C2[C@@H]4[C@@H](C)[C@H](C)CC[C@]4(C)CC[C@]23C)[C@@]1(C)C(=O)O, the IC50 (Prostaglandin E synthase [1]) was no less than 30000 nM.

COc1cc(C[C@@H]2COC(=O)[C@]2(O)Cc2ccc(O)c(OC)c2)ccc1O showed an IC50 (J774 [6]) of 14000 nM.

COc1cc(/C=C/C(=O)CC(=O)/C=C/c2ccc(O)c(OC)c2)ccc1O [CURCUMIN] gave an IC50 (Prostaglandin E synthase [1]) of 300 nM.

Compound CCCCCC(=O)Cc1cc(O)cc(O)c1C(=O)Oc1cc(O)c(C(=O)O)c(CCCCC)c1 has an IC50 (Prostaglandin E synthase [1]) of 400 nM.

With O=C(O[C@@H]1Cc2c(O)cc(O)cc2O[C@@H]1c1cc(O)c(O)c(O)c1)c1cc(O)c(O)c(O)c1 [EPIGALOCATECHIN GALLATE] the IC50 (Prostaglandin E synthase [1]) was 1800 nM.

Work on C[C@H]1[C@H](C)CC[C@]2(C)CC[C@]3(C)C(=CC(=O)[C@@H]4[C@@]5(C)CC[C@@H](O)[C@](C)(C(=O)O)[C@@H]5CC[C@]43C)[C@H]12 [11-KETO BOSWELLIC ACID] yielded an IC50 (Prostaglandin E synthase [1]) of 10000 nM.

In the case of COc1ccc2cc3[n+](cc2c1OC)CCc1cc2c(cc1-3)OCO2, the inhibition [7] is reported as 71.9%, the inhibition [8] is reported as 15 to 75% and the inhibition [9] is reported as 16 to 63%.

Compound CCCCCCCCCCCC1=C(O)C(=O)C=C(O)C1=O [EMBELIN] has an IC50 (Prostaglandin E synthase [10]) of 200 nM.
